Laboratory results as given in patent US9050267B2 (Novartis AG, priority 2011, dated 2015).
Structures can show the parent of a compound that is named as a salt. Where two headings read alike, the source gives them in different places. Peptide text beside a SMILES is read from it.

Experiments:
[1] = Aerodynamic particle size distribution, NEXT GENERATION IMPACTOR, passive blister dry powder inhaler; type: physicochemical; settings: Lot A2; for % deviation in FPFd2Q<500: going from 35 L/min to 47 L/min
Method: The aerodynamic particle size distribution (aPSD) of the resulting aerosol dose was assessed using a NEXT GENERATION IMPACTOR™ at flow rates of 35 LPM and 47 LPM, corresponding to inhaler pressure drops of 4 kPa and 6 kPa, respectively. Note for present purposes flow rate and pressure drop are related via the inhaler flow resistance, and are used interchangeably. The mass distribution of each active ingredient on the cascade impactor stages was determined using an HPLC assay.
Total lung deposition as a function of variations in flow rate (O) is dependent not only on the aerodynamic particle size distribution of the aerosol, but also on the variations in inertial impaction which occur with changes in flow rate. In other words, for a given aPSD, the lung dose is expected to decrease as the flow rate increases. In order to achieve flow rate independence in-vivo, it is important to achieve a balance of these two opposing factors. A simple way to account for the dependence of lung dose on both variables, i.e. aerodynamic particle size cutoff diameter, d, and flow rate, Q, is to express the aPSD in terms of a fine particle fraction cut-off which incorporates both variables. Assuming oropharyngeal losses are determined largely by inertial impaction, the cut-off for lung dose may be expressed in terms of the impaction parameter, d^2Q. The selected cut-off d^2Q of 500 μm^2-L/min was chosen to represent a range of inhalers, based on the fact that the best correlate of lung deposition is found for the fraction of particles with an aerodynamic size of less than 3 μm, and a medium resistance inhaler is typically tested at a flow rate of about 60 L/min.

[2] = TURBUHALER, cited from earlier work
[3] = biological target: β2-adrenoceptor (Homo sapiens, UniProt P07550); settings: cited from earlier work
[4] = cited from earlier work
[5] = pressure drop 4 kPa, flow rate 35 L/min
[6] = pressure drop 6 kPa, flow rate 47 L/min

Chain of β2-adrenoceptor (P07550 whole entry, species assumed): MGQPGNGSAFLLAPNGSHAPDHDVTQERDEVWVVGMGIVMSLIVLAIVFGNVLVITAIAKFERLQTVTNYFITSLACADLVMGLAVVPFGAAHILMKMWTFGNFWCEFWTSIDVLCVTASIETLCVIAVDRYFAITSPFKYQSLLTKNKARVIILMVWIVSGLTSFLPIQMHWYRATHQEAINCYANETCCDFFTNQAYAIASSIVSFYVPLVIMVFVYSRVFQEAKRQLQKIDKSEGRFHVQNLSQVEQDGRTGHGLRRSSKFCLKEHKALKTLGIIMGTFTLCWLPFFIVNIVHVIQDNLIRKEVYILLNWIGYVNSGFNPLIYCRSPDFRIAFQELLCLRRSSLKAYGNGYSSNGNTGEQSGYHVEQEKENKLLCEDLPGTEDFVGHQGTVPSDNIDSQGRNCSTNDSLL

Structure (SMILES): C[N+]1(C)CCC(OC(=O)C(O)(c2ccccc2)C2CCCC2)C1.[Br-] (centres unmarked) [Glycopyrrolate, 3-[(cyclopentyl-hydroxyphenyl-acetyl)oxy]-1,1-dimethylpyrrolidinium bromide]
- % deviation in FPFd2Q<500 [1]: 8.1%

Structure (SMILES): CCc1cc2c(cc1CC)CC(NC[C@H](O)c1ccc(O)c3[nH]c(=O)ccc13)C2 [Indacaterol maleate, (R)-5-[2-(5,6-diethyl-indan-2-ylamino)-1-hydroxyethyl]-8-hydroxy-1H-quinolin-2-one]
- FPF<3.3 μm [1, 5]: 57 % DD
- MMAD [1, 5]: 2.8 μm
- d^2Q < 500 [1, 5]: 65
- FPF<3.3 μm [1, 6]: 69 % DD
- MMAD [1, 6]: 2.3 μm
- d^2Q < 500 [1, 6]: 68

Structure (SMILES): CCCC1O[C@@H]2C[C@H]3[C@@H]4CCC5=CC(=O)C=C[C@]5(C)[C@H]4[C@@H](O)C[C@]3(C)[C@]2(C(=O)CO)O1 (some centres unmarked) [budesonide]
- total lung deposition ([2]; breathe more slowly (comfortable inhalation manoeuvre)): 15%
- total lung deposition ([2]; breathe quickly (forceful inhalation manoeuvre)): 28%

Structure (SMILES): CCc1cc2c(cc1CC)CC(NC[C@H](O)c1ccc(O)c3[nH]c(=O)ccc13)C2 [indacaterol, (R)-5-[2-(5,6-diethyl-indan-2-ylamino)-1-hydroxyethyl]-8-hydroxy-1H-quinolin-2-one]
- duration of action [3]: over 24 hours
- onset of action [3]: about 10 minutes
- % deviation in FPFd2Q<500 [1]: 4.6%

Structure (SMILES): O=C([O-])CC(O)(CC(=O)[O-])C(=O)[O-].[Na+].[Na+].[Na+] [sodium citrate]
- Dry Tg ([4]; pH > 7): 170 (pH > 7) ° C.

Structure (SMILES): CC(C)C[C@H](NC(=O)[C@H](CC(C)C)NC(=O)[C@@H](N)CC(C)C)C(=O)O [trileucine] (H-Leu-Leu-Leu-OH)
- Dry Tg ([4]; pH dependent): 70 to 100 °C
